Data on three compounds can be found in patent US20190313934A1, “DEVICE AND SYSTEM FOR MONITORING AND TREATING MUSCLE TENSION-RELATED MEDICAL CONDITIONS” (Biotrak Health, Inc., priority 2016, published 2019).

Structures are written as SMILES.

The conditions of assay [1]: diazepam combined with EMG biofeedback; chronic anxious patients; cited from earlier work.
Assay [2] is described as follows: Evaluation of analgesics, alone or with the prototype Halo system, on a human subject with recurring headaches. The conditions noted are these: one subject. The assay is classed as in vivo. The protocol: The subject was a person in New York City with a history of recurring headaches. Tests were conducted in three stages between December 2016 and March 2017. In the first stage the subject used various over-the-counter analgesics at recommended dosages to manage headache symptoms (Sessions 1 and 2). Conditions were self-assessed prior to drug administration according to a standard headache scale, and then qualitatively reassessed for the extent of relief. In the second stage, the subject took an analgesic at the same time of using a prototype Halo™ system for 5 min (Session 3). In the third stage the subject used the prototype Halo™ system alone for a duration of 10 min on three occasions (Sessions 4-6).

As to `CN1C(=O)CN=C(c2ccccc2)c2cc(Cl)ccc21` [diazepam], the “Effect on muscular tension” value in assay [1] was “effectively reduced muscular tension”.

With `CC(=O)Oc1ccccc1C(=O)O` [aspirin], the Relief result in assay [2] (over-the-counter analgesic alone at recommended dosage, qualitative self-assessment of headache relief) was “Moderate”.

As to `COc1ccc2cc([C@H](C)C(=O)O)ccc2c1` [naproxen], the Relief result in assay [2] (analgesic taken at the same time as using prototype Halo system for 5 min, qualitative self-assessment) was “Complete”.
